From patent US20090263499A1, “AREA DECON[…] LOW-LEVEL CONCENTRATION OF […]” (Ethicon, Inc., priority 2008, published 2009)
Like-named read-outs stand apart in the source and are kept apart here.

Tested on: G. stearothermophilus spores
Conditions: for Average Log Reduction: nominal 0.35 ppm H2O2, blades exposed serially; for Average Log Reduction / AVERAGE LOG REDUCTION: [H2O2] average, low; for AVERAGE LOG REDUCTION: nominal 0.6 ppm H2O2 vapor from urea complex, 6×10^4 spores per blade
Experimental: Stainless steel scalpel blades were inoculated with 10 μL of inoculum containing 6×10^4 spores. The inoculum was then dried on the blade surface. Nine inoculated blades where placed in a 1 ft^3 sealed chamber constructed of acrylic. In the chamber a urea complex was confined in a glass tube with a flow restriction that allowed the concentration of peroxide in the chamber to be controlled. Three identically-inoculated blades where placed inside a covered petrie dish and placed near the chamber to serve as controls. At three day intervals, three blades were retrieved from the chamber as well as one control. These blades were subjected to a standard recovery, plating and incubation procedure from which the viable spore count and log reduction could be determined.

SMILES: OO [hydrogen peroxide]
- Average Log Reduction (after 3 days exposure, high 0.35, 0.2, 0.5 ppm): 1.12
- Average Log Reduction (after 7 days exposure, high 0.30, 0.2, 0.5 ppm): 1.83
- Average Log Reduction (after 9 days exposure, high 0.39, 0.2, 0.6 ppm): ≧4.0
- AVERAGE LOG REDUCTION (after 3 days exposure, high 0.56, 0.40, 0.83 ppm): 1.5
- AVERAGE LOG REDUCTION (after 6 days exposure, high 0.66, 0.40, 0.83 ppm): 2.7
- AVERAGE LOG REDUCTION (after 9 days exposure, high 0.66, 0.40, 0.95 ppm): ≧4.8
- log reduction in G. stearothermophilus spores per day (nominal concentration of 0.6 ppm of hydrogen peroxide, from Table 1): ~0.5
